Laboratory results from patent publication US20250197846A1, “TAGMENTATION WORKFLOW” (ILLUMINA, INC., priority 2022, published 2025).
“Also recorded” adds a separate entry of the source.

Test system: Tn5 transposase enzyme bound to tagmented DNA (tagmented DNA complex), Mg^2+ cofactor
Assay: Removal of Tn5 transposase from tagmented DNA complex after tagmentation with Mg2+ cofactor (library yield and insert size profile after PCR)
Excerpt: As such Mg^2+ was the divalent cation cofactor.
In the workflow for experiment A: DNA was first tagmented, appending the transferred strand of the adaptor to the 5′ ends of the tagmented DNA, and then treated with water (not sodium dodecyl sulfate (SDS)), thus keeping the Tn5 bound to the tagmented DNA. The tagmented DNA complex was washed and subjected to PCR (including high temperature heating which may dissociate the Tn5) to append adaptor sequences to the 3′ ends of the tagmented DNA.
In the workflow for experiment, B: DNA was first tagmented, appending the transferred strand of the adaptor to the 5′ ends of the tagmented DNA, and then was treated with SDS to denature the Tn5 enzyme, thus dissociating it from the tagmented DNA complex. The SDS was washed away and the tagmented DNA fragments were exposed to PCR to append adaptor sequences to the 3′ ends of the tagmented DNA.
Some of the supernatant was analyzed using a TapeStation. The size profile and yield of the tagmented DNA fragments from experiments A and B were measured using the TapeStation.
As such, Mg^2+ was the divalent cation cofactor.
In the workflow for experiment A: DNA was first tagmented, appending the transferred strand of the adaptor to the 5′ ends of the tagmented DNA. Tn5 was removed by adding 1% SDS and incubating for 5 minutes at 25° C.
In the workflow for experiment B: DNA was first tagmented, appending the transferred strand of the adaptor to the 5′ ends of the tagmented DNA. […] In experiment B, the transposase removal fluid included 100 mM Tris-HCl, pH 8.6, 100 mM NaCl, and 0.6 mM EDTA.
In the workflow for experiments A and B: DNA was first tagmented, appending the transferred strand of the adaptor to the 5′ ends of the tagmented DNA. Tn5 was removed by adding 1% SDS and incubating for 5 minutes at 25° C.
In the workflow for experiments C and D: DNA was first tagmented, appending the transferred strand of the adaptor to the 5′ ends of the tagmented DNA.
For each of these experiments, the tagmentation buffer included water, 4% DMF, 2 mM magnesium acetate, and 4 mM tris acetate salt, pH 7.6. As such Mg^2+ was the divalent cation cofactor.
In the workflow for experiment B: DNA was first tagmented, appending the transferred strand of the adaptor to the 5′ ends of the tagmented DNA. […] In experiment B, the transposase removal fluid included 140 mM Tris, pH 8.8, 100 mM KCl, and 1.8 mM EDTA. […] The sample was processed under Extension-Ligation and PCR-cycling conditions with a ligase, non-strand displacing polymerase and Q5 polymerase in a buffer base with 2.4 mM Magnesium.
In the workflow for experiment A: DNA was first tagmented using the Mg^2+ tagmentation buffer described in this example, appending the transferred strand of the adaptor to the 5′ ends of the tagmented DNA. Tn5 was removed by adding 1% SDS and incubating for 5 minutes at 25° C.
In the workflow for experiment D: DNA was first tagmented using the Mg^2+ tagmentation buffer described in this example, appending the transferred strand of the adaptor to the 5′ ends of the tagmented DNA.
In the workflow for experiment A: DNA was first tagmented, appending the transferred strand of the adaptor to the 5′ ends of the tagmented DNA. […] In experiment A, the transposase removal fluid included 500 mM Tris, pH 8.6, 100 mM NaCl, and 15 mM 2-hydroxy-4-oxo-4-thiophen-2-yl-but-2-enoic acid integrase inhibitor. […]

Compound | Dissociation of Tn5 enzyme from tagmented DNA complex (yield and insert size profile, FIG. 5) (Example 2, supernatant discarded, 100 mM Tris-HCl pH 8.6, 100 mM NaCl, 0.6 mM EDTA, 1 minute at 60° C., compared with 1% SDS) | Dissociation of Tn5 from tagmented DNA complex (size profile and yield, FIG. 6) (Example 3, applied directly without removing supernatant, 100 mM Tris-HCl pH 8.6, 100 mM NaCl, 6 mM EDTA, 1 minute at 60° C.) | Dissociation of Tn5 from tagmented DNA complex (size profile and yield, FIG. 7) (Example 4, 140 mM Tris pH 8.8, 100 mM KCl, 1.8 mM EDTA, 1 minute at 60° C., extension-ligation and PCR added directly with 2.4 mM magnesium) | Tn5 removal from the tagmented product complex (yield and insert size profile, FIG. 4) (Example 1, SDS treatment versus water and high temperature heating of PCR, Mg2+ cofactor, sulfate)
O=C(O)CN(CCN(CC(=O)O)CC(=O)O)CC(=O)O [EDTA, ethylenediaminetetraacetic acid] | sufficient to replace SDS as a reagent for dissociating the Tn5 enzyme from a tagmented DNA complex | can effectively dissociate Tn5 from the tagmented DNA complex | can dissociate Tn5 from the tagmented DNA complex | –
CCCCCCCCCCCCOS(=O)(=O)[O-].[Na+] [SDS, sodium dodecyl sulfate] | – | – | – | more effective than heating alone; also recorded: more effective in removing Tn5 from the tagmented product complex than the high temperature heating used in PCR
